Laboratory results taken from ChEMBL document CHEMBL3885861, “Open TG-GATES”.

Species: Rattus norvegicus
Assay: Open TG-GATES - Regimen: Daily Repeat
Assay type: toxicity, organism-based, Sprague-Dawley
Set-up: regimen Daily Repeat, gender Male, age 6 weeks
Settings: in vivo, po, route gavage; for Bas / Eos / Fbg / Ht / Lym / MCHC / MCV / Mono / PT / Plat / RBC / Ret / WBC / Neu: tissue Blood; for KIDNEY_L / KIDNEY_R / KIDNEY_TOTAL: tissue Kidney; for ALT / AST / CRE / Ca / DBIL / GLC / IP / K / LDH / Na / PL / RALB / TBIL / TC / TG / TP / gamma-GTP / BUN / Cl: tissue Plasma
[1] = 0 mg/kg, 72 h, dose level Control, time 3 day
[2] = 0 mg/kg, […], dose level Control, time 7 day
[3] = 0 mg/kg, […], dose level Control, time 14 day
[4] = 0 mg/kg, […], dose level Control, time 28 day
[5] = 80 mg/kg, 72 h, dose level Low, time 3 day
[6] = 80 mg/kg, […], dose level Low, time 7 day
[7] = 80 mg/kg, […], dose level Low, time 14 day
[8] = 80 mg/kg, […], dose level Low, time 28 day

COc1ccc([C@@H]2Sc3ccccc3N(CCN(C)C)C(=O)[C@@H]2OC(C)=O)cc1 [DILTIAZEM]
TERMINAL_BW [1]: 215.4 g
Bas [1]: 0.2%
Eos [1]: 1%
Fbg [1]: 262.2 mg/dL
Ht [1]: 41.3%
Lym [1]: 74.6%
MCHC [1]: 32.7%
MCV [1]: 67.4 fL
Mono [1]: 3.4%
PT [1]: 14.3 s
Plat [1]: 126.4 x10_4/uL
RBC [1]: 613.4 x10_4/ul
Ret [1]: 8.9%
WBC [1]: 101.8 x10_2/uL
KIDNEY_L [1]: 1 g
KIDNEY_R [1]: 1 g
KIDNEY_TOTAL [1]: 1.9 g
ALT [1]: 45.8 IU/L
AST [1]: 76.8 IU/L
CRE [1]: 0.2 mg/dL
Ca [1]: 11.2 mg/dL
DBIL [1]: 0.016 mg/dL
GLC [1]: 177.4 mg/dL
IP [1]: 7.6 mg/dL
K [1]: 4 meq/L
LDH [1]: 97 IU/L
Na [1]: 143.8 meq/L
PL [1]: 151.2 mg/dL
RALB [1]: 2.7 g/dL
TBIL [1]: 0.032 mg/dL
TC [1]: 79.6 mg/dL
TG [1]: 86 mg/dL
TP [1]: 5.5 g/dL
gamma-GTP [1]: 1.2 IU/L
TERMINAL_BW [2]: 250.6 g
TERMINAL_BW [3]: 321.8 g
TERMINAL_BW [4]: 411.3 g
Bas [2]: 0%
Eos [2]: 0.8%
Fbg [2]: 297.6 mg/dL
Ht [2]: 41.8%
Lym [2]: 77%
MCHC [2]: 33.1%
MCV [2]: 64.6 fL
Mono [2]: 2.8%
Neu [2]: 18.4%
PT [2]: 14.2 s
Plat [2]: 137.2 x10_4/uL
RBC [2]: 648 x10_4/ul
Ret [2]: 6.7%
WBC [2]: 91.7 x10_2/uL
Bas [3]: 0.4%
Eos [3]: 0.6%
Fbg [3]: 290.8 mg/dL
Ht [3]: 44%
Lym [3]: 82.2%
MCHC [3]: 33.2%
MCV [3]: 62.3 fL
Mono [3]: 2.2%
Neu [3]: 14%
PT [3]: 14.1 s
Plat [3]: 141.2 x10_4/uL
RBC [3]: 706.2 x10_4/ul
Ret [3]: 5.2%
Bas [4]: 0.4%
Eos [4]: 1%
Fbg [4]: 302.8 mg/dL
Ht [4]: 45.8%
Lym [4]: 77%
MCHC [4]: 34.1%
MCV [4]: 57.2 fL
Mono [4]: 2.4%
Neu [4]: 18.8%
PT [4]: 14 s
Plat [4]: 112.6 x10_4/uL
RBC [4]: 801.4 x10_4/ul
Ret [4]: 2.5%
WBC [4]: 99.4 x10_2/uL
KIDNEY_L [2]: 1.1 g
KIDNEY_R [2]: 1 g
KIDNEY_TOTAL [2]: 2.1 g
KIDNEY_L [3]: 1.3 g
KIDNEY_R [3]: 1.3 g
KIDNEY_TOTAL [3]: 2.6 g
KIDNEY_L [4]: 1.5 g
KIDNEY_R [4]: 1.5 g
KIDNEY_TOTAL [4]: 3 g
ALT [2]: 45.4 IU/L
AST [2]: 72.6 IU/L
BUN [2]: 14.8 mg/dL
CRE [2]: 0.2 mg/dL
Ca [2]: 11.1 mg/dL
Cl [2]: 106.4 meq/L
DBIL [2]: 0.014 mg/dL
GLC [2]: 187.8 mg/dL
IP [2]: 7.6 mg/dL
K [2]: 4.3 meq/L
LDH [2]: 84 IU/L
Na [2]: 143.8 meq/L
PL [2]: 162.4 mg/dL
RALB [2]: 2.8 g/dL
TBIL [2]: 0.018 mg/dL
TC [2]: 82.8 mg/dL
TG [2]: 112.6 mg/dL
TP [2]: 5.8 g/dL
gamma-GTP [2]: 1 IU/L
ALT [3]: 39 IU/L
AST [3]: 65.6 IU/L
BUN [3]: 16 mg/dL
CRE [3]: 0.2 mg/dL
Ca [3]: 10.8 mg/dL
Cl [3]: 105.6 meq/L
DBIL [3]: 0.018 mg/dL
GLC [3]: 189 mg/dL
IP [3]: 6.9 mg/dL
K [3]: 4.1 meq/L
LDH [3]: 92.8 IU/L
Na [3]: 144 meq/L
PL [3]: 160.4 mg/dL
RALB [3]: 2.8 g/dL
TBIL [3]: 0.02 mg/dL
TC [3]: 71.2 mg/dL
TG [3]: 180.4 mg/dL
TP [3]: 5.8 g/dL
gamma-GTP [3]: 1 IU/L
ALT [4]: 37.2 IU/L
AST [4]: 66 IU/L
BUN [4]: 16.8 mg/dL
CRE [4]: 0.3 mg/dL
Ca [4]: 11.1 mg/dL
Cl [4]: 108 meq/L
DBIL [4]: 0.014 mg/dL
GLC [4]: 198.8 mg/dL
IP [4]: 6.8 mg/dL
K [4]: 3.7 meq/L
LDH [4]: 63.4 IU/L
Na [4]: 146.4 meq/L
PL [4]: 160.2 mg/dL
RALB [4]: 2.9 g/dL
TBIL [4]: 0.028 mg/dL
TC [4]: 79.4 mg/dL
TG [4]: 125.2 mg/dL
TP [4]: 6.2 g/dL
gamma-GTP [4]: 1.2 IU/L
TERMINAL_BW [5]: 214.1 g
Bas [5]: 0%
Eos [5]: 0.8%
Fbg [5]: 270 mg/dL
Ht [5]: 39.8%
Lym [5]: 72.2%
MCHC [5]: 32.8%
MCV [5]: 64.2 fL
Mono [5]: 2.8%
Neu [5]: 23.2%
PT [5]: 13.8 s
Plat [5]: 118.7 x10_4/uL
RBC [5]: 621.2 x10_4/ul
Ret [5]: 8.5%
KIDNEY_L [5]: 0.9 g
KIDNEY_R [5]: 1 g
KIDNEY_TOTAL [5]: 1.9 g
ALT [5]: 48.6 IU/L
AST [5]: 68.2 IU/L
CRE [5]: 0.2 mg/dL
Ca [5]: 11.1 mg/dL
DBIL [5]: 0.02 mg/dL
GLC [5]: 178 mg/dL
IP [5]: 7.4 mg/dL
K [5]: 4 meq/L
LDH [5]: 78.4 IU/L
Na [5]: 143.8 meq/L
PL [5]: 161.2 mg/dL
RALB [5]: 2.6 g/dL
TBIL [5]: 0.026 mg/dL
TC [5]: 86.4 mg/dL
TG [5]: 128.8 mg/dL
TP [5]: 5.5 g/dL
gamma-GTP [5]: 1.2 IU/L
TERMINAL_BW [6]: 255.5 g
TERMINAL_BW [7]: 315.7 g
TERMINAL_BW [8]: 415.5 g
Bas [6]: 0%
Eos [6]: 1%
Fbg [6]: 295 mg/dL
Ht [6]: 41.2%
Lym [6]: 77.4%
MCHC [6]: 33.2%
MCV [6]: 65.1 fL
Mono [6]: 2.6%
Neu [6]: 17.8%
PT [6]: 14.2 s
Plat [6]: 132.9 x10_4/uL
RBC [6]: 632 x10_4/ul
Ret [6]: 7.5%
WBC [6]: 77.3 x10_2/uL
Bas [7]: 0.4%
Eos [7]: 0.6%
Fbg [7]: 311.2 mg/dL
Ht [7]: 44.4%
Lym [7]: 80.2%
MCHC [7]: 32.9%
MCV [7]: 63.6 fL
Mono [7]: 2.4%
PT [7]: 13.8 s
Plat [7]: 139.6 x10_4/uL
RBC [7]: 698.8 x10_4/ul
Ret [7]: 5%
WBC [7]: 116 x10_2/uL
Bas [8]: 0.2%
Eos [8]: 1.2%
Fbg [8]: 313.4 mg/dL
Ht [8]: 46.4%
Lym [8]: 77.4%
MCHC [8]: 33.9%
MCV [8]: 57.8 fL
Mono [8]: 2.2%
Neu [8]: 18.4%
PT [8]: 14 s
Plat [8]: 111.5 x10_4/uL
RBC [8]: 803.2 x10_4/ul
Ret [8]: 2.5%
KIDNEY_L [6]: 1.1 g
KIDNEY_R [6]: 1.1 g
KIDNEY_TOTAL [6]: 2.2 g
KIDNEY_L [7]: 1.3 g
KIDNEY_R [7]: 1.3 g
KIDNEY_TOTAL [7]: 2.6 g
KIDNEY_L [8]: 1.4 g
KIDNEY_R [8]: 1.4 g
KIDNEY_TOTAL [8]: 2.8 g
ALT [6]: 43.2 IU/L
AST [6]: 68.6 IU/L
BUN [6]: 15.4 mg/dL
CRE [6]: 0.2 mg/dL
Ca [6]: 11.2 mg/dL
DBIL [6]: 0.014 mg/dL
GLC [6]: 192.4 mg/dL
IP [6]: 8.3 mg/dL
K [6]: 4 meq/L
LDH [6]: 83.4 IU/L
Na [6]: 143.6 meq/L
PL [6]: 153.2 mg/dL
RALB [6]: 2.8 g/dL
TBIL [6]: 0.02 mg/dL
TC [6]: 81.2 mg/dL
TG [6]: 109.2 mg/dL
TP [6]: 5.8 g/dL
gamma-GTP [6]: 1 IU/L
ALT [7]: 45 IU/L
AST [7]: 70.4 IU/L
BUN [7]: 16.2 mg/dL
CRE [7]: 0.2 mg/dL
Ca [7]: 10.9 mg/dL
Cl [7]: 105.8 meq/L
DBIL [7]: 0.016 mg/dL
GLC [7]: 184.8 mg/dL
IP [7]: 7 mg/dL
K [7]: 4.2 meq/L
LDH [7]: 99.2 IU/L
Na [7]: 144.6 meq/L
PL [7]: 171.8 mg/dL
RALB [7]: 2.8 g/dL
TBIL [7]: 0.018 mg/dL
TC [7]: 81.8 mg/dL
TG [7]: 169.6 mg/dL
TP [7]: 6 g/dL
gamma-GTP [7]: 1.2 IU/L
ALT [8]: 40.8 IU/L
AST [8]: 70.4 IU/L
BUN [8]: 17.6 mg/dL
CRE [8]: 0.2 mg/dL
Ca [8]: 11.1 mg/dL
Cl [8]: 108.4 meq/L
DBIL [8]: 0.016 mg/dL
GLC [8]: 202.8 mg/dL
IP [8]: 6.6 mg/dL
K [8]: 3.8 meq/L
LDH [8]: 65 IU/L
Na [8]: 146.6 meq/L
PL [8]: 161.8 mg/dL
RALB [8]: 2.9 g/dL
TBIL [8]: 0.016 mg/dL
TC [8]: 79.2 mg/dL
TG [8]: 147.4 mg/dL
TP [8]: 6.5 g/dL
gamma-GTP [8]: 1 IU/L
TERMINAL_BW (240 mg/kg, 72 h, dose level Middle, time 3 day): 216.9 g
